In brackets after ≈: the same amount, converted by molar mass.
Columns and labels:
Type in all cases: cell-based
[1] = system: HUVEC (human umbilical vein endothelial cells); assay: cells; details: for IC50: Homo sapiens, HUVEC, isolated compounds, MTT, 72 h, normal cells
Method: (§1) The human cell lines MCF-7 (breast cancer), Ca Ski (cervical cancer), and HT-29 (colon cancer) were cultured as monolayer in RPMI 1640 growth media. HUVEC (human umbilical vein endothelial cells) and PC-3 (prostate cancer) cells were cultured in DMEM. All cells were purchased from the American Tissue Culture Collection (ATCC, USA) except for human umbilical vein endothelial cells (HUVEC) which were obtained from ScienCell Research Laboratories (Carlsbad, CA). All the media were supplemented with 10% v/v foetal bovine serum (FBS), 100 μg/mL penicillin/streptomycin, and 50 μg/mL amphotericin B. The cells were cultured in a 5% CO2 incubator at 37°C.
(§2) Cell viability was investigated using 3-(4, 5-dimethylthiazol-2-yl)-2, 5-diphenyltetrazolium bromide (MTT) assay. Cells were detached from the […] tissue culture flask when it achieved 80% confluency. The detached cells were pellet by centrifugation (1,000 rpm; 5 minutes). Cells (3.0 × 10^4 cells/mL) were seeded onto a 96-well microtiter plate (Nunc). The cells were incubated at 37°C CO2 incubator for 24 h to give adherent cells. The test compounds (1–100 μg/mL) were added onto the 96-well microtiter plate containing adherent cells. The untreated cells were incubated in 10% media containing 0.5% DMSO (without addition of any test compounds/extracts). This mixture was regarded as the negative control whereas doxorubicin as the positive control. The plates were incubated for 72 h at 37°C in a 5% CO2 incubator. After 72 h, the media were removed and 100 μL of fresh medium and 20 μL of MTT (Sigma, filter sterile, 5 mg/mL) were added to each well and further incubated for 4 hours (37°C) after which the media were substituted with 150 μL DMSO. The 96-well microtiter plates were then agitated at room temperature onto an incubator shaker to dissolve the formazan crystals. The absorbance (A) of the content of the plates was measured at 540 nm using a microplate reader. The percentage of inhibition of each test sample was calculated according to the following formula: Percentage of inhibition (%) = (A control − A sample)/A control × 100%. The average of three replicates was then obtained. The IC50 for each extract was extrapolated from the graphs of the percentage inhibition versus concentration of test agents. Cytotoxicity of each test agent is expressed as IC50 value. The IC50 value is the concentration of test agents that cause 50% inhibition or cell death, averaged from the three experiments. The selectivity index (SI) was also calculated as described by using the ratio between IC50 of the extract or compounds on normal cell lines (HUVEC) and IC50 of the tested extract or compounds on cancerous cell lines. Selectivity index (SI) values equal or greater than three were considered to have a high selectivity towards cancerous cells. An SI value denotes the selectivity of the sample to the tested cell lines.

[2] = system: MCF-7 (breast cancer); assay: cells; details: for IC50: Homo sapiens, MCF7, MTT, 72 h, mean ± SD of three replicates; for IC50 / SI (selectivity index) MCF-7: isolated compounds; for SI (selectivity index) MCF-7: IC50 HUVEC / IC50 MCF-7
Method: as §1, §2

[3] = system: PC-3 (prostate cancer); assay: MTT cytotoxicity assay, PC-3; details: for IC50: Homo sapiens, MTT, 72 h, mean ± SD of three replicates; for IC50 / SI (selectivity index) PC-3: isolated compounds; for SI (selectivity index) PC-3: IC50 HUVEC / IC50 PC-3
Method: as §1, §2

[4] = system: HT-29 (colon cancer); assay: MTT cytotoxicity assay, HT-29; details: for IC50: Homo sapiens, HT-29, MTT, 72 h, mean ± SD of three replicates; for IC50 / SI (selectivity index) HT-29: isolated compounds; for SI (selectivity index) HT-29: IC50 HUVEC / IC50 HT-29
Method: as §1, §2

[5] = system: Ca Ski (cervical cancer); assay: cells
Method: as §1, §2

Compound	IC50 [1] [µg/mL]	IC50 [2] [µg/mL]	SI (selectivity index) MCF-7 [2]	IC50 [3] [µg/mL]	SI (selectivity index) PC-3 [3]	IC50 [4] [µg/mL]	SI (selectivity index) HT-29 [4]	antiproliferative/cytotoxic activity against PC-3 (in words) ([3]; MTT assay)	antiproliferative/cytotoxic activity against HT-29 (in words) ([4]; MTT assay)	IC50 ([5]; Homo sapiens, Ca-Ski, isolated compounds, MTT, 72 h, mean ± SD of three replicates) [µg/mL]	antiproliferative/cytotoxic activity against Ca Ski (in words) [5]	toxicity towards normal cells HUVEC (in words) [1]	antiproliferative/cytotoxic activity against MCF-7 (in words) [2]
CC1=CCCC2(C)OC2CC(=C(C)C)C(=O)C1 (stereo not drawn) [Compound 12, germacrone-4,5-epoxide]	48.4 ± 4.7 (≈ 207 µM)	37.2 ± 4 (≈ 159 µM)	1.3	43.9 ± 7.2 (≈ 187 µM)	1.1	39.6 ± 4.6 (≈ 169 µM)	1.2						
C=C1CC[C@H]2C(C)(C)CCC[C@]2(C)[C@H]1C/C=C(/C=O)CC(OC)OC [Compound 13, calcaratarin A]	47.3 ± 4.2 (≈ 136 µM)	62.5 ± 4.8 (≈ 179 µM)	0.8	41.7 ± 3.4 (≈ 120 µM)	1.1	48.3 ± 5.1 (≈ 139 µM)	1.0						
C=C1CC(=O)C(=C(C)C)C[C@H]2[C@H]1CC[C@]2(C)O [Compound 14, isoprocurcumenol]	45.1 ± 3 (≈ 192 µM)	58.8 ± 4.2 (≈ 251 µM)	0.8	37.4 ± 4.5 (≈ 160 µM)	1.2	51.6 ± 3.9 (≈ 220 µM)	0.9						
CC(C)=C1C/C=C(\C)CC[C@H]2O[C@@]2(C)CC1=O [Compound 15, germacrone-1,10-epoxide]	55.5 ± 1.6 (≈ 237 µM)	61.2 ± 5.8 (≈ 261 µM)	0.9	53.2 ± 4.9 (≈ 227 µM)	1.0	72.8 ± 8.3 (≈ 311 µM)	0.8						
C=C(C)[C@@H]1CC[C@H](C)[C@]12CC(=C(C)C)C(=O)O2 [Compound 17, curcumanolide A]	21.7 ± 7 (≈ 92.6 µM)	29.8 ± 3.1 (≈ 127 µM)	0.7	18.8 ± 2.4 (≈ 80.2 µM)	1.2	21.3 ± 3.2 (≈ 90.9 µM)	1.0	moderate inhibitory activity	moderate inhibitory activity				
C=C(C)C(=O)C[C@]12OC(=O)C=C(C)[C@@H]1CC[C@@H]2C [Compound 18, curcuzedoalide]	45.3 ± 7.8 (≈ 182 µM)	49.8 ± 3.6 (≈ 201 µM)	0.9	62.1 ± 8.1 (≈ 250 µM)	0.7	58.2 ± 3.5 (≈ 234 µM)	0.8						
Cc1cc2oc(=O)c(C)c-2cc2c1CC[C@@H]2C [Compound 19, gweicurculactone]	71.7 ± 6.1 (≈ 314 µM)	31.2 ± 3.2 (≈ 137 µM)	2.3	38.3 ± 2.2 (≈ 168 µM)	1.9	35.7 ± 5.8 (≈ 156 µM)	2.0						
COc1cccc2c1C(=O)c1c(O)c3c(c(O)c1C2=O)C[C@@](O)(C(=O)CO)C[C@@H]3O[C@H]1C[C@H](N)[C@H](O)[C@H](C)O1 [doxorubicin, reference compound]	1.4 (≈ 2.58 µM)	0.1 (≈ 0.184 µM)								0.2 ± 1 (≈ 0.368 µM)			
Hexane											high inhibitory activity	low toxicity	high inhibitory activity
